In general, melting point refers to the temperature of the solid-liquid transition.

Each structure is given as a SMILES string. Values after ≈ are worked out from the molar mass of the structure shown.

These results are taken from patent publication US20030216479A1, “Novel compositions comprising 2,2-Bis (4-hydroxy-3-methylphenyl) heptane and uses thereof” (priority 2001, published 2003).

The test system of one series is S. epidermidis. Description: MIC antibacterial activity. It is filed as cell-based. To be noted: Staphylococcus epidermidis.
The subject of the next series is S. pneumoniae. Put plainly: MIC antibacterial activity. It is filed as cell-based. To be noted: Streptococcus pneumoniae.
A further series concerns S. pyogenes. Description: MIC antibacterial activity. Format: cell-based. To be noted: Streptococcus pyogenes.
A further series deals with E. faecalis. Description: MIC antibacterial activity. Format: cell-based. To be noted: Enterococcus faecalis.
For the next series, the system named is C. diphtheriae. Put plainly: MIC antibacterial activity. It is filed as cell-based. To be noted: Corynebacterium diphtheriae.
Another series has as its system M. smegmatis. Description: MIC antibacterial activity. The settings on record: Mycolicibacterium smegmatis. It is filed as cell-based.
The next series relates to M. catarrhalis. Description: MIC antibacterial activity. It is filed as cell-based. To be noted: Moraxella catarrhalis.
Another series relates to H. influenzae. Put plainly: MIC antibacterial activity. It is filed as cell-based. To be noted: Haemophilus influenzae.
The subject of a further series is H. pylori. Description: MIC antibacterial activity. Format: cell-based. To be noted: Helicobacter pylori.
The subject of series [1] is methicillin-sensitive Staphylococcus aureus. Put plainly: Wound healing model (FIG. 1). It is filed as in vivo. The settings on record: methicillin-susceptible Staphylococcus aureus; mice; topical twice daily from 24 h; sampled 72 h post-infection. The protocol: (§1) FIG. 1. Efficacy of a composition comprising 2,2-Bis(4-hydroxy-3-methylphenyl)heptane in the wound healing model. A defined inoculum of approximately 10^5 CFU of methicillin-sensitive Staphylococcus aureus in 20 μl culture medium was pipetted into a wound approximately 1 cm^2 created by removal of the epidermis from the shaved backs of mice. After 24 hours, the composition comprising 2,2-Bis(4-hydroxy-3-methylphenyl)heptane, placebo control or positive control ointment was applied twice daily. Approximately, seventy two hours post-infection, the wound was sampled and appropriate dilutions plated on nutritive agars for determination of microbial burden. The number of colony forming units (CFU) of methicillin-sensitive Staphylococcus aureus per wound is shown.
(§2) The wound healing model, using methods generally known by those skilled in the art, is used to measure the efficacy of topically applied compounds in suitable vehicles against any bacteria, for example, Staphylococcus epidermis, Staphylococcus aureus, Streptococcus pyrogenes, Haemophilus influenzae, or mixtures thereof. By removing several epidermal layers by surgical procedure, a superficial wound of approximately 1 cm^2 was created. About 10 ^5 cfu/20 ul of culture medium of any bacteria, for example, S aureus, was applied to the wound. […]

The test system of series [2] is methicillin-resistant Staphylococcus aureus. Description: Wound healing model (FIG. 2). Format: in vivo. To be noted: mice, topical twice daily from 24 h, sampled 72 h post-infection. As to the method: as §1, with “2.” for “1.”, “methicillin-resistant” for “methicillin-sensitive”
as §2

In series [3] the test system is Staphylococcus epidermidis. Description: Wound healing model (FIG. 3). It is filed as in vivo. To be noted: mice, topical twice daily from 24 h, sampled 72 h post-infection. As to the method:
as §1, with “3.” for “1.”, “epidermis” for “aureus”
as §2

`CCCCCC(C)(c1ccc(O)c(C)c1)c1ccc(O)c(C)c1` [2,2-Bis(4-hydroxy-3-methylphenyl)heptane] had a melting point of 99 to 101 °C. In the series on S. epidermidis, this molecule registered an MIC of 2 µg/mL (≈ 6.4 µM). The same molecule returned an MIC against S. pneumoniae of 6 µg/mL (≈ 19.2 µM). This molecule also returned an MIC against S. pyogenes of 6 µg/mL (≈ 19.2 µM). Moreover, the MIC against E. faecalis worked out at 2 µg/mL (≈ 6.4 µM). This molecule also displayed an MIC with C. diphtheriae of 2 µg/mL (≈ 6.4 µM). Also, the MIC against M. smegmatis was 2 µg/mL (≈ 6.4 µM). This molecule also came in with an MIC with M. catarrhalis of 2 µg/mL (≈ 6.4 µM). The same molecule registered an MIC with H. influenzae of 6 µg/mL (≈ 19.2 µM). The molecule also yielded an MIC with H. pylori of 16 µg/mL (≈ 51.2 µM). In addition, in [1], the “reducing the population levels of pathogenic bacteria (CFU per wound)” value (“reducing the population levels … (CFU per wound)” for short) is “efficacious”. The “reducing the population levels … (CFU per wound)” value in [2] is given as “efficacious”. For the same molecule, in series [3], the “reducing the population levels … (CFU per wound)” value was “efficacious”.
